Several values for one entry are separate records, joined by “and”; a condition that tells them apart may be missing. Identical values can stand only once. After the bases stand the sugars from the 5' end (letter, count) and the backbone: PS all phosphorothioate, else s phosphorothioate and o phosphodiester by linkage. Methylation of C is not given here. k = constrained ethyl (cEt); d = 2'-deoxy (DNA)
Molecular target: MALAT1
Conditions: ASO, A431, 0.005 µM

Sequence | target mRNA inhibition
ATAGACGGAGAACAAC (sugars k3 d10 k3, PS) | 21%
TCCCTGAAGGTGTTCG (sugars k3 d10 k3, PS) | 18%
ACAAGGCAAATCGCCA (sugars k3 d10 k3, PS) | 17%
CAACCGTAACAGGCCA (sugars k3 d10 k3, PS) | 23%
AATCACTACTCCAAGC (sugars k3 d10 k3, PS) | 29%
AGTCAGGGACACACCC (sugars k3 d10 k3, PS) | -16%
TAGTCTGAAGAATACC (sugars k3 d10 k3, PS) | 23%
CCTTCTGAACCGGAGC (sugars k3 d10 k3, PS) | -4%
CCCCGCCTCAGTTACA (sugars k3 d10 k3, PS) | 35%
CACTGTCAATTTATAG (sugars k3 d10 k3, PS) | 19%
CCTATAAGGACAGCTA (sugars k3 d10 k3, PS) | 15%
TACTCCAAGCATTGGG (sugars k3 d10 k3, PS) | 0%
CTGCATCTAGGCCATC (sugars k3 d10 k3, PS) | 65% and 52%
GAGAACAACTCGCATC (sugars k3 d10 k3, PS) | 20%
CACAATTCTTAATCAG (sugars k3 d10 k3, PS) | 41%
CGTTTTTCAGCTTCCA (sugars k3 d10 k3, PS) | 7%
CAATAGTACTATAGCA (sugars k3 d10 k3, PS) | 7%
TACTTAGCTGTGGTTT (sugars k3 d10 k3, PS) | 23%
CTGCATTTACTTGCCA (sugars k3 d10 k3, PS) | 17%
TTATGCTTATTCCCCA (sugars k3 d10 k3, PS) | 75% and 85%
ACCAAATCGCACTGGC (sugars k3 d10 k3, PS) | 3%
TGGCCCTTCGCATACG (sugars k3 d10 k3, PS) | 28%
ACCTTCATCACCAAAT (sugars k3 d10 k3, PS) | 22%

Sequence | target mRNA inhibition
AAATCATTGGGAGTTA (sugars k3 d10 k3, PS) | 24%
CTGAAGTTCTCCTGAG (sugars k3 d10 k3, PS) | 38%
GGTGAGGCTGACACTT (sugars k3 d10 k3, PS) | 27%
AAACATTGCCTACCAC (sugars k3 d10 k3, PS) | -9%
TTAAAGAGTGTTCGCA (sugars k3 d10 k3, PS) | 59% and 39%
CATGCCAGTTACTCCA (sugars k3 d10 k3, PS) | 33%
ACGGTTGAGAAGTGGC (sugars k3 d10 k3, PS) | 22%
TCAATTTATAGACCCC (sugars k3 d10 k3, PS) | 47%
CGAATTCAGGGTGAGG (sugars k3 d10 k3, PS) | 68% and 87%
CTAATAGCAGCGGGAT (sugars k3 d10 k3, PS) | 22%
AAATGGCGGACTTTCT (sugars k3 d10 k3, PS) | 17%
ACTACTCCAAGCATTG (sugars k3 d10 k3, PS) | 36%
TATATAAGGTCAATAG (sugars k3 d10 k3, PS) | 5%
GATGCTAGCTTGGCCA (sugars k3 d10 k3, PS) | -2%
AGCTAGGGAAAAGTGG (sugars k3 d10 k3, PS) | -10%
AGGATGTATATAGTTC (sugars k3 d10 k3, PS) | 2%
AAGGCTCCATGGTTGT (sugars k3 d10 k3, PS) | 32%
TTACATGTTCCCACCC (sugars k3 d10 k3, PS) | 19%
GGAGAACAACTCGCAT (sugars k3 d10 k3, PS) | 17%
TCGCATCACCGGAATT (sugars k3 d10 k3, PS) | 4%
CAACACTCAGCCTTTA (sugars k3 d10 k3, PS) | -1%
AGCTACTGGCTGCATC (sugars k3 d10 k3, PS) | 20%

— the OligoGym collection
